Test results taken from US11091469B2, “Crystalline form of N-[5-(3,5-difluoro-benzyl)-1H-indazol-3-yl]-4-(4-methyl-piperazin-1-yl)-2-(tetrahydro-pyran-4-ylamino)-benzamide” (NERVIANO MEDICAL SCIENCES S.R.L., priority 2016, dated 2021).

Tests used:
[1] = Thermodynamic stability of crystalline forms; type: physicochemical; conditions: at temperature of about 40° C. or higher, vis-à-vis the three known crystalline forms (forms 1, 2, 3)
[2] = Phase I clinical trials of entrectinib in cancer patients: pharmacokinetic measurements
Description: (§1) A total of 18 patients across the Phase I studies met our expected Phase 2 eligibility criteria, which include the presence of NTRK1, NTRK2, NTRK3, ROS1 or ALK genetic alterations which are fusions, as opposed to other types of molecular alterations; the patient not having been previously treated with an ALK inhibitor or a ROS1 inhibitor and treatment at or above the recommended Phase II dose.

[3] = Phase I clinical trials of entrectinib in cancer patients: treatment-related adverse events, recommended Phase II dose; conditions: across the Phase I studies
[4] = test system: solid tumors with NTRK1, NTRK2, NTRK3, ROS1 or ALK genetic alterations which are fusions; experiment: Phase I clinical trials of entrectinib in cancer patients: tumor response (RECIST); type: in vivo, human
Description: as §1

Structure (SMILES) | thermodynamic stability [1] | pharmacokinetic measurements (exposure vs dose) ([2]; across the daily dosing regimens evaluated) | half-life ([2]; daily dosing regimens, patients) | Grade 3 treatment-related adverse event: cognitive impairment ([3]; 92 patients dosed) [patients] | Grade 3 treatment-related adverse event: diarrhea ([3]; 92 patients dosed) [patient] | Grade 3 treatment-related adverse event: fatigue ([3]; 92 patients dosed) [patients] | incidence of the most frequent treatment-related adverse events ([3]; fatigue, dysgeusia, paresthesia, nausea, myalgia) [%] | response rate, defined as complete and partial responses by RECIST criteria ([4]; 18 patients who met the expected Phase 2 eligibility criteria across both Phase I studies, assessed by the clinical sites) [%] | additional patients remaining on study with stable disease ([4]; among the 18 patients meeting expected Phase 2 eligibility criteria) [patients] | durable responses (duration on study treatment) ([4]; nine responders remaining on study treatment) | responses in patients with NTRK1, NTRK2 or NTRK3 gene rearrangements ([4]; out of 4 patients, NSCLC, colorectal cancer, salivary gland cancer) [responses] | responses in patients with ALK gene rearrangements ([4]; out of 6 patients, two NSCLC and two other solid tumors) [responses] | responses in patients with ROS1 gene rearrangements ([4]; out of 8 patients, all NSCLC, including one complete response) [responses] | responses out of treated patients ([4]; out of 18 treated patients meeting expected Phase 2 eligibility criteria) [responses] | longest time on treatment of responders ([4]; responding patients with ROS1 gene rearrangements, NSCLC) [months]
CN1CCN(c2ccc(C(=O)Nc3n[nH]c4ccc(Cc5cc(F)cc(F)c5)cc34)c(NC3CCOCC3)c2)CC1 [Form 4, N-[5-(3,5-difluoro-benzyl)-1H-indazol-3-yl]-4-(4-methyl-piperazin-1-yl)-2-(tetrahydro-pyran-4-ylamino)-benzamide] | greater thermodynamic stability | – | – | – | – | – | – | – | – | – | – | – | – | – | –
CN1CCN(c2ccc(C(=O)Nc3n[nH]c4ccc(Cc5cc(F)cc(F)c5)cc34)c(NC3CCOCC3)c2)CC1 [Entrectinib, N-[5-(3,5-Difluoro-benzyl)-1H-indazol-3-yl]-4-(4-methyl-piperazin-1-yl)-2-(tetrahydro-pyran-4-ylamino)-benzamide] | – | dose-proportional increases | compatible with once-daily dosing | 2 | 1 | 4 | > 10 | 72 | 3 | up to 21 treatment cycles | 3 | 4 | 6 | 13 | 21
